In ChEMBL document CHEMBL5365457, “Selective HDAC3 Inhibitors with Potent In Vivo Antitumor Efficacy against Triple-Negative Breast Cancer” (J Med Chem, 2023):
Active and inactive are the calls of the source. The rule behind the calls is not given here.

Experiments:
[1] = Selectivity ratio of IC50 for cytotoxicity against human MCF-10A cells assessed as inhibition of cell growth to IC50 for cytotoxicity against […] cells assessed as inhibition of cell growth; assay type: toxicity, cell-based; conditions: MCF-10A cells versus 4T1 cells, read-out: Ratio IC50
4T1 [2] = test: In-vivo inhibition of HDAC3 in ip dosed BALB/c mouse implanted with mouse 4T1 cells assessed as hyperacetylation of H3K27 level by Western blot analysis; assay type: functional, organism-based; conditions: dose 5-15 mg/kg
4T1 [3] = test: Cell cycle arrest in mouse 4T1 cells assessed as accumulation of cells at G2/M phase at 2.75 uM incubated for 72 hrs by flow cytometry; assay type: functional
[4] = Apparent volume of distribution in Wistar rat at 5 mg/kg, ip measured upto 24 hrs by HPLC analysis; assay type: ADME, organism-based; conditions: in vivo
[5] = Apparent volume of distribution in Wistar rat at 15 mg/kg, ip measured upto 24 hrs by HPLC analysis; assay type: ADME, organism-based; conditions: in vivo
4T1 [6] = test: Cell cycle arrest in mouse 4T1 cells assessed as accumulation of cells at G2/M phase at 110 nM incubated for 72 hrs by flow cytometry; assay type: functional
Histone deacetylase 1 [7] = target: T1, Histone deacetylase 1 (Homo sapiens, UniProt Q13547); test: Inhibition of full length N-terminal human recombinant HDAC1 at 1 uM incubated for 30 mins by fluorescence based microplate assay relative to control
4T1 [8] = test: Antitumor activity against mouse 4T1 cells implanted in BALB/c mouse assessed as reduction in tumor volume at 50 to 100 mg/kg, ip administered 5 times a week for 21 days; assay type: functional, organism-based; conditions: dose 50-100 mg/kg, time 21.0 day
[9] = MRT (0 to infinity) in Wistar rat at 5 mg/kg, ip measured upto 24 hrs by HPLC analysis; assay type: ADME, organism-based; conditions: in vivo
[10] = Tmax in Wistar rat at 15 mg/kg, ip measured upto 24 hrs by HPLC analysis; assay type: ADME, organism-based; conditions: in vivo
4T1 [11] = test: Induction of apoptosis in mouse 4T1 cells assessed as nuclear fragmentation incubated for 72 hrs by acridine orange staining based analysis; assay type: functional, cell-based
4T1 [12] = test: Antitumor activity against mouse 4T1 cells implanted in BALB/c mouse assessed as decrease in number of lung aggregated cells at 15 mg/kg, ip measured for 7 days by H and E staining based assay; assay type: functional, organism-based; conditions: time 7.0 day
[13] = Toxicity in BALB/c mouse implanted with mouse 4T1 cells assessed as spleen damage at 5 to 15 mg/kg, ip measured after 21 days by H and E staining based assay; assay type: organism-based; conditions: in vivo, 504 h, dose 5-15 mg/kg, time 21 day
4T1 [14] = test: Antitumor activity against mouse 4T1 cells implanted in BALB/c mouse assessed as upregulation of caspase-3 level in tumor at 5 to 15 mg/kg, ip by Western blot analysis; assay type: functional, organism-based; conditions: dose 5-15 mg/kg
Histone deacetylase 1 [15] = target: T1, Histone deacetylase 1; test: Inhibition of human recombinant HDAC1 incubated for 15 mins by fluorescence based microplate analysis
[16] = Toxicity in BALB/c mouse implanted with mouse 4T1 cells assessed as effect on cell shape in heart at 5 to 15 mg/kg, ip measured after 21 days by H and E staining based assay; assay type: organism-based; conditions: in vivo, 504 h, dose 5-15 mg/kg, time 21 day
4T1 [17] = test: Antitumor activity against mouse 4T1 cells implanted in BALB/c mouse assessed as tumor growth inhibition at 5 mg/kg, ip measured on day 14; assay type: functional; conditions: 4T1, 336 h, time 14 day, read-out: TGI
[18] = Selectivity ratio of IC50 for cytotoxicity against human HEK293 cells assessed as inhibition of cell growth to IC50 for cytotoxicity against human MDA-MB-453 cells assessed as inhibition of cell growth; assay type: toxicity, cell-based; conditions: HEK293 cells versus MDA-MB-453 cells, read-out: Ratio IC50
4T1 [19] = test: Induction of apoptosis in mouse 4T1 cells at 38.6 uM incubated for 72 hrs by annexin/PI staining based flow cytometry analysis (reference value: 1.35%); assay type: functional
[20] = Toxicity in BALB/c mouse implanted with mouse 4T1 cells assessed as effect on cell shape in kidney at 5 to 15 mg/kg, ip measured after 21 days by H and E staining based assay; assay type: organism-based; conditions: in vivo, 504 h, dose 5-15 mg/kg, time 21 day
[21] = AUC (0 to infinity) in Wistar rat at 15 mg/kg, ip measured upto 24 hrs by HPLC analysis; assay type: ADME, organism-based; set-up: dose 15 mg/kg, time < 24 hrs, route ip; conditions: in vivo
[22] = Toxicity in BALB/c mouse implanted with mouse 4T1 cells assessed as neutrophilic infiltration in liver at 5 to 15 mg/kg, ip measured after 21 days; assay type: organism-based; conditions: in vivo, 504 h, dose 5-15 mg/kg, time 21 day
[23] = Cytotoxicity against Oxaliplatin-resistant human MDA-MB-231 cell assessed as reduction in cell viability incubated for 72 hrs by MTT assay; assay type: functional, cell-based; conditions: Oxaliplatin-resistant MDA-MB-231 cell
[24] = AUC (0 to t) in Wistar rat at 15 mg/kg, ip measured upto 24 hrs by HPLC analysis; assay type: ADME, organism-based; set-up: dose 15 mg/kg, time < 24 hrs, route ip; conditions: in vivo
[25] = Toxicity in BALB/c mouse implanted with mouse 4T1 cells assessed as heart damage at 5 to 15 mg/kg, ip measured after 21 days by H and E staining based assay; assay type: organism-based; conditions: in vivo, 504 h, dose 5-15 mg/kg, time 21 day
Histone deacetylase 3 = Histone deacetylase 3 (Homo sapiens, UniProt O15379); test: Inhibition of human recombinant HDAC3 at 1 uM measured after 30 mins by fluorescence based microplate assay relative to control
4T1 [26] = test: In-vivo inhibition of HDAC3 in ip dosed BALB/c mouse implanted with mouse 4T1 cells assessed as hyperacetylation of H3K9 level by Western blot analysis; assay type: functional, organism-based; conditions: dose 5-15 mg/kg
Histone deacetylase 8 = target: T2, Histone deacetylase 8 (Homo sapiens, UniProt Q9BY41); test: Inhibition of human recombinant HDAC8 incubated for 15 mins by fluorescence based microplate analysis
T2 sequence (Q9BY41 whole entry): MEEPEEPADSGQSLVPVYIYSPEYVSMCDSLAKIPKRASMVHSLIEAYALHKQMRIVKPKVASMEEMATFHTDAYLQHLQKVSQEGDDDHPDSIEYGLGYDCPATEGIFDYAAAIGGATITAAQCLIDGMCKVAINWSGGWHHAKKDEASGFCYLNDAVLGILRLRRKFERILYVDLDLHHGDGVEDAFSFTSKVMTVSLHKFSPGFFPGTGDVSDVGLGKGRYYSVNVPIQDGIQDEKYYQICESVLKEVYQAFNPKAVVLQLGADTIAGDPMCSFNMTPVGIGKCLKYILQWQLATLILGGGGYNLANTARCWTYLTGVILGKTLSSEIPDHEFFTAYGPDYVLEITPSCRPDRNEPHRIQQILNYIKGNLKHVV

[27] = AUC (0 to t) in Wistar rat at 5 mg/kg, ip measured upto 24 hrs by HPLC analysis; assay type: ADME, organism-based; set-up: dose 5 mg/kg, time < 24 hrs, route ip; conditions: in vivo
[28] = Selectivity ratio of IC50 for cytotoxicity against human HCEC cells assessed as inhibition of cell growth to IC50 for cytotoxicity against human MDA-MB-231 cells assessed as inhibition of cell growth; assay type: toxicity, cell-based; conditions: HCEC cells versus MDA-MB-231 cells, read-out: Ratio IC50
[29] = Cytotoxicity against human HCEC cells assessed as inhibition of cell growth incubated for 72 hrs by MTT assay; assay type: toxicity, cell-based; conditions: human, HCEC cells
[30] = Toxicity in BALB/c mouse implanted with mouse 4T1 cells assessed as effect on cell size in spleen at 5 to 15 mg/kg, ip measured after 21 days by H and E staining based assay; assay type: organism-based; conditions: in vivo, 504 h, dose 5-15 mg/kg, time 21 day
[31] = Tmax in Wistar rat at 5 mg/kg, ip measured upto 24 hrs by HPLC analysis; assay type: ADME, organism-based; conditions: in vivo

T1 sequence (Q13547 whole entry): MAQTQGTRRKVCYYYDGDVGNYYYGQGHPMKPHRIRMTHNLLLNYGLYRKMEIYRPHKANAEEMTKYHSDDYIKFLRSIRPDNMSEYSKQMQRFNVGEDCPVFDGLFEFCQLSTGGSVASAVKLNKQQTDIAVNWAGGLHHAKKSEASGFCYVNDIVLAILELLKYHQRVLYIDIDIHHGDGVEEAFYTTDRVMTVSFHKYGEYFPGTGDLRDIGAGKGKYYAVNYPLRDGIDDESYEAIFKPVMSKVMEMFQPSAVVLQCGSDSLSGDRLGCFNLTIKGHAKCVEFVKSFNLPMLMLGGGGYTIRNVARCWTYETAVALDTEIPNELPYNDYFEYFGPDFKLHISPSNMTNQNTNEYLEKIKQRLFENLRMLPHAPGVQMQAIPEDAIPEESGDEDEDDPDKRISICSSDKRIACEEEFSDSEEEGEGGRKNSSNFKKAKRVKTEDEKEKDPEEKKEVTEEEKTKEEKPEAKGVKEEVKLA
Sequence of Histone deacetylase 3 (O15379 whole entry): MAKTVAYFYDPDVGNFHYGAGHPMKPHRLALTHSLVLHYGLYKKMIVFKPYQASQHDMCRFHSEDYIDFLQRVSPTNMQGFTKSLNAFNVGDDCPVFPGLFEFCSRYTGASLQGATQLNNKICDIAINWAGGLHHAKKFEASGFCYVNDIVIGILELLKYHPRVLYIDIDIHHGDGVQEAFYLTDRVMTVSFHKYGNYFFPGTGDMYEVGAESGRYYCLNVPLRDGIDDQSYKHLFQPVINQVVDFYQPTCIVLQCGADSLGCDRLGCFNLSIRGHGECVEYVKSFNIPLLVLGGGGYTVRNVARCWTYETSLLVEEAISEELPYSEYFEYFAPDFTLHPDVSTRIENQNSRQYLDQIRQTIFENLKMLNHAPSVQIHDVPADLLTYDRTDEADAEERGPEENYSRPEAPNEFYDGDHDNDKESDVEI

CCCNNC(=O)c1cnc(NCc2ccc(OC)cc2)cn1
selectivity ratio [1]: 385
inhibition (4T1 [2]): Dose-Dependent Effect
Activity (4T1 [3]): 63.4%
Vz/F [4]: 7.01 (mg/kg)/(ug/ml)
Vz/F [5]: 12.57 (mg/kg)/(ug/ml)
Activity (4T1 [6]): 38.8%
inhibition (Histone deacetylase 1 [7]): < 17%
Activity (4T1 [8]): Active
MRT inf [9]: 5.73 h
Tmax [10]: 2 h
Activity (4T1 [11]): Active
Activity (4T1 [12]): Active
Activity [13]: Non-Toxic
Activity (4T1 [14]): Active
IC50 (Histone deacetylase 1 [15]): 1.98 µM
Activity [16]: Non-Toxic
inhibition in vivo at 5 mg/kg (4T1 [17]): 91.2%
selectivity ratio [18]: 286
Activity (4T1 [19]): 82.7%
Activity [20]: Non-Toxic
AUC(0-inf) [21]: 20600 ng·h/mL
Activity [22]: Non-Toxic
IC50 [23]: 0.754 µM
AUC(0-t) at 24 h [24]: 19600 ng·h/mL
Activity [25]: Non-Toxic
inhibition (Histone deacetylase 3): > 70%
inhibition (4T1 [26]): Dose-Dependent Effect
IC50 (Histone deacetylase 8): 10.7 µM
AUC(0-t) at 24 h [27]: 4050 ng·h/mL
selectivity ratio [28]: 286
IC50 at 72 h [29]: 212 µM
Activity [30]: Non-Toxic
Tmax [31]: 2 h
